Source: patent US11053204B2, “Pyrimidinyloxy benzene derivatives as herbicides” (FMC Corporation, priority 2015, dated 2021)

Columns and labels:
Assay in all cases: Test C postemergence, plant response rating
Format in all cases: in vivo
[1] = test system: blackgrass (Alopecurus myosuroides); conditions: for Plant response rating, Blackgrass: scale 0 to 100; for Blackgrass plant response rating: scale 0 to 100 (0 no effect, 100 complete control)
Procedure, shortened: (§1)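 Visual injury score, 0 = no effect, 100 = complete control, assigned against untreated controls after 13 to 15 d in the greenhouse. Compounds were applied in a surfactant-containing non-phytotoxic solvent mix, preemergence to seeded loam/sand or silt loam soil, or postemergence to 1- to 4-leaf plants (2 to 18 cm).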

[2] = test system: oat, wild (wild oat Avena fatua); conditions: for Plant response rating, Oat, Wild: scale 0 to 100; for Oat, Wild plant response rating: scale 0 to 100 (0 no effect, 100 complete control)
Procedure, shortened: as §1

[3] = test system: waterhemp (common waterhemp, Amaranthus rudis); conditions: for Plant response rating, Waterhemp: scale 0 to 100; for Waterhemp plant response rating: scale 0 to 100 (0 no effect, 100 complete control)
Procedure, shortened: as §1

[4] = test system: corn (Zea mays); conditions: for Plant response rating, Corn: scale 0 to 100; for Corn plant response rating: scale 0 to 100 (0 no effect, 100 complete control)
Procedure, shortened: as §1

[5] = test system: ragweed (common ragweed, Ambrosia elatior); conditions: for Plant response rating, Ragweed: scale 0 to 100; for Ragweed plant response rating: scale 0 to 100 (0 no effect, 100 complete control)
Procedure, shortened: as §1

[6] = test system: velvetleaf (Abutilon theophrasti); conditions: for Plant response rating, Velvetleaf: scale 0 to 100; for Velvetleaf plant response rating: scale 0 to 100 (0 no effect, 100 complete control)
Procedure, shortened: as §1

[7] = test system: crabgrass, large (large crabgrass, Digitaria sanguinalis); conditions: for Plant response rating, Crabgrass, Large: scale 0 to 100; for Crabgrass, Large plant response rating: scale 0 to 100 (0 no effect, 100 complete control)
Procedure, shortened: as §1

[8] = test system: lambsquarters (Chenopodium album); conditions: for Plant response rating, Lambsquarters: scale 0 to 100; for Lambsquarters plant response rating: scale 0 to 100 (0 no effect, 100 complete control)
Procedure, shortened: as §1

[9] = test system: oilseed rape (Brassica napus); conditions: for Plant response rating, Oilseed Rape: scale 0 to 100; for Oilseed Rape plant response rating: scale 0 to 100 (0 no effect, 100 complete control)
Procedure, shortened: as §1

[10] = test system: wheat (winter wheat, Triticum aestivum); conditions: for Plant response rating, Wheat: scale 0 to 100; for Wheat plant response rating: scale 0 to 100 (0 no effect, 100 complete control)
Procedure, shortened: as §1

[11] = test system: galium (catchweed bedstraw, Galium aparine); conditions: for Plant response rating, Galium: scale 0 to 100; for Galium plant response rating: scale 0 to 100 (0 no effect, 100 complete control)
Procedure, shortened: as §1

[12] = test system: ryegrass, Italian (Italian ryegrass, Lolium multiflorum); conditions: for Plant response rating, Ryegrass, Italian: scale 0 to 100; for Ryegrass, Italian plant response rating: scale 0 to 100 (0 no effect, 100 complete control)
Procedure, shortened: as §1

[13] = test system: kochia (Kochia scoparia); conditions: for Plant response rating, Kochia: scale 0 to 100; for Kochia plant response rating: scale 0 to 100 (0 no effect, 100 complete control)
Procedure, shortened: as §1

[14] = test system: barnyardgrass (Echinochloa crus-galli); conditions: for Plant response rating, Barnyardgrass: scale 0 to 100; for Barnyardgrass plant response rating: scale 0 to 100 (0 no effect, 100 complete control)
Procedure, shortened: as §1

[15] = test system: nutsedge, yellow (yellow nutsedge, Cyperus esculentus); conditions: for Plant response rating, Nutsedge, Yellow: scale 0 to 100; for Nutsedge, Yellow plant response rating: scale 0 to 100 (0 no effect, 100 complete control)
Procedure, shortened: as §1

[16] = test system: soybean (Glycine max); conditions: for Plant response rating, Soybean: scale 0 to 100; for Soybean plant response rating: scale 0 to 100 (0 no effect, 100 complete control)
Procedure, shortened: as §1

SMILES: O=C(OCC(F)(F)F)c1c(Br)cccc1Oc1ncc(Cl)cn1 [Compound 35]
- Plant response rating, Blackgrass ([1]; 16 g ai/ha): 0
- Plant response rating, Blackgrass ([1]; 31 g ai/ha): 0
- Blackgrass plant response rating ([1]; 62 g ai/ha): 10
- Blackgrass plant response rating ([1]; 125 g ai/ha): 10
- Plant response rating, Oat, Wild ([2]; 16 g ai/ha): 0
- Plant response rating, Oat, Wild ([2]; 31 g ai/ha): 0
- Oat, Wild plant response rating ([2]; 62 g ai/ha): 0
- Oat, Wild plant response rating ([2]; 125 g ai/ha): 0
- Plant response rating, Waterhemp ([3]; 16 g ai/ha): 65
- Plant response rating, Waterhemp ([3]; 31 g ai/ha): 80
- Waterhemp plant response rating ([3]; 62 g ai/ha): 90
- Waterhemp plant response rating ([3]; 125 g ai/ha): 95
- Plant response rating, Corn ([4]; 16 g ai/ha): 5
- Plant response rating, Corn ([4]; 31 g ai/ha): 10
- Corn plant response rating ([4]; 62 g ai/ha): 20
- Corn plant response rating ([4]; 125 g ai/ha): 20
- Plant response rating, Ragweed ([5]; 16 g ai/ha): 0
- Plant response rating, Ragweed ([5]; 31 g ai/ha): 5
- Ragweed plant response rating ([5]; 62 g ai/ha): 10
- Ragweed plant response rating ([5]; 125 g ai/ha): 20
- Plant response rating, Velvetleaf ([6]; 16 g ai/ha): 40
- Plant response rating, Velvetleaf ([6]; 31 g ai/ha): 30
- Velvetleaf plant response rating ([6]; 62 g ai/ha): 35
- Velvetleaf plant response rating ([6]; 125 g ai/ha): 40
- Plant response rating, Crabgrass, Large ([7]; 16 g ai/ha): 10
- Plant response rating, Crabgrass, Large ([7]; 31 g ai/ha): 10
- Crabgrass, Large plant response rating ([7]; 62 g ai/ha): 15
- Crabgrass, Large plant response rating ([7]; 125 g ai/ha): 10
- Plant response rating, Lambsquarters ([8]; 16 g ai/ha): 50
- Plant response rating, Lambsquarters ([8]; 31 g ai/ha): 40
- Lambsquarters plant response rating ([8]; 62 g ai/ha): 65
- Lambsquarters plant response rating ([8]; 125 g ai/ha): 70
- Plant response rating, Oilseed Rape ([9]; 16 g ai/ha): 20
- Plant response rating, Oilseed Rape ([9]; 31 g ai/ha): 30
- Oilseed Rape plant response rating ([9]; 62 g ai/ha): 50
- Oilseed Rape plant response rating ([9]; 125 g ai/ha): 65
- Plant response rating, Wheat ([10]; 16 g ai/ha): 0
- Plant response rating, Wheat ([10]; 31 g ai/ha): 0
- Wheat plant response rating ([10]; 62 g ai/ha): 0
- Wheat plant response rating ([10]; 125 g ai/ha): 0
- Plant response rating, Galium ([11]; 16 g ai/ha): 35
- Plant response rating, Galium ([11]; 31 g ai/ha): 35
- Galium plant response rating ([11]; 62 g ai/ha): 55
- Galium plant response rating ([11]; 125 g ai/ha): 60
- Plant response rating, Ryegrass, Italian ([12]; 16 g ai/ha): 0
- Plant response rating, Ryegrass, Italian ([12]; 31 g ai/ha): 0
- Ryegrass, Italian plant response rating ([12]; 62 g ai/ha): 5
- Ryegrass, Italian plant response rating ([12]; 125 g ai/ha): 5
- Plant response rating, Kochia ([13]; 16 g ai/ha): 5
- Plant response rating, Kochia ([13]; 31 g ai/ha): 40
- Kochia plant response rating ([13]; 62 g ai/ha): 60
- Kochia plant response rating ([13]; 125 g ai/ha): 90
- Plant response rating, Barnyardgrass ([14]; 16 g ai/ha): 5
- Plant response rating, Barnyardgrass ([14]; 31 g ai/ha): 5
- Barnyardgrass plant response rating ([14]; 62 g ai/ha): 10
- Barnyardgrass plant response rating ([14]; 125 g ai/ha): 15
- Plant response rating, Nutsedge, Yellow ([15]; 16 g ai/ha): 0
- Plant response rating, Nutsedge, Yellow ([15]; 31 g ai/ha): 0
- Nutsedge, Yellow plant response rating ([15]; 62 g ai/ha): 0
- Nutsedge, Yellow plant response rating ([15]; 125 g ai/ha): 5
- Plant response rating, Soybean ([16]; 16 g ai/ha): 25
- Plant response rating, Soybean ([16]; 31 g ai/ha): 25
- Soybean plant response rating ([16]; 62 g ai/ha): 35
- Soybean plant response rating ([16]; 125 g ai/ha): 35

SMILES: N#Cc1cccc(Oc2ncc(Cl)cn2)c1CCCC(F)(F)F [Compound 72]
- Plant response rating, Blackgrass ([1]; 16 g ai/ha): 5
- Plant response rating, Blackgrass ([1]; 31 g ai/ha): 10
- Blackgrass plant response rating ([1]; 62 g ai/ha): 10
- Blackgrass plant response rating ([1]; 125 g ai/ha): 30
- Plant response rating, Oat, Wild ([2]; 16 g ai/ha): 5
- Plant response rating, Oat, Wild ([2]; 31 g ai/ha): 5
- Oat, Wild plant response rating ([2]; 62 g ai/ha): 5
- Oat, Wild plant response rating ([2]; 125 g ai/ha): 10
- Plant response rating, Waterhemp ([3]; 16 g ai/ha): 85
- Plant response rating, Waterhemp ([3]; 31 g ai/ha): 80
- Waterhemp plant response rating ([3]; 62 g ai/ha): 90
- Waterhemp plant response rating ([3]; 125 g ai/ha): 90
- Plant response rating, Corn ([4]; 16 g ai/ha): 10
- Plant response rating, Corn ([4]; 31 g ai/ha): 15
- Corn plant response rating ([4]; 62 g ai/ha): 10
- Corn plant response rating ([4]; 125 g ai/ha): 20
- Plant response rating, Ragweed ([5]; 16 g ai/ha): 35
- Plant response rating, Ragweed ([5]; 31 g ai/ha): 50
- Ragweed plant response rating ([5]; 62 g ai/ha): 40
- Ragweed plant response rating ([5]; 125 g ai/ha): 75
- Plant response rating, Velvetleaf ([6]; 16 g ai/ha): 40
- Plant response rating, Velvetleaf ([6]; 31 g ai/ha): 50
- Velvetleaf plant response rating ([6]; 62 g ai/ha): 40
- Velvetleaf plant response rating ([6]; 125 g ai/ha): 70
- Plant response rating, Crabgrass, Large ([7]; 16 g ai/ha): 10
- Plant response rating, Crabgrass, Large ([7]; 31 g ai/ha): 10
- Crabgrass, Large plant response rating ([7]; 62 g ai/ha): 10
- Crabgrass, Large plant response rating ([7]; 125 g ai/ha): 50
- Plant response rating, Lambsquarters ([8]; 16 g ai/ha): 75
- Plant response rating, Lambsquarters ([8]; 31 g ai/ha): 85
- Lambsquarters plant response rating ([8]; 62 g ai/ha): 75
- Lambsquarters plant response rating ([8]; 125 g ai/ha): 85
- Plant response rating, Oilseed Rape ([9]; 16 g ai/ha): 50
- Plant response rating, Oilseed Rape ([9]; 31 g ai/ha): 60
- Oilseed Rape plant response rating ([9]; 62 g ai/ha): 0
- Oilseed Rape plant response rating ([9]; 125 g ai/ha): 65
- Plant response rating, Wheat ([10]; 16 g ai/ha): 0
- Plant response rating, Wheat ([10]; 31 g ai/ha): 0
- Wheat plant response rating ([10]; 62 g ai/ha): 0
- Wheat plant response rating ([10]; 125 g ai/ha): 5
- Plant response rating, Galium ([11]; 16 g ai/ha): 80
- Plant response rating, Galium ([11]; 31 g ai/ha): 80
- Galium plant response rating ([11]; 62 g ai/ha): 5
- Galium plant response rating ([11]; 125 g ai/ha): 98
- Plant response rating, Ryegrass, Italian ([12]; 16 g ai/ha): 5
- Plant response rating, Ryegrass, Italian ([12]; 31 g ai/ha): 5
- Ryegrass, Italian plant response rating ([12]; 62 g ai/ha): 10
- Ryegrass, Italian plant response rating ([12]; 125 g ai/ha): 15
- Plant response rating, Kochia ([13]; 16 g ai/ha): 100
- Plant response rating, Kochia ([13]; 31 g ai/ha): 100
- Kochia plant response rating ([13]; 62 g ai/ha): 100
- Kochia plant response rating ([13]; 125 g ai/ha): 100
- Plant response rating, Barnyardgrass ([14]; 16 g ai/ha): 5
- Plant response rating, Barnyardgrass ([14]; 31 g ai/ha): 5
- Barnyardgrass plant response rating ([14]; 62 g ai/ha): 10
- Barnyardgrass plant response rating ([14]; 125 g ai/ha): 10
- Plant response rating, Nutsedge, Yellow ([15]; 16 g ai/ha): 5
- Plant response rating, Nutsedge, Yellow ([15]; 31 g ai/ha): 10
- Nutsedge, Yellow plant response rating ([15]; 62 g ai/ha): 10
- Nutsedge, Yellow plant response rating ([15]; 125 g ai/ha): 15
- Plant response rating, Soybean ([16]; 16 g ai/ha): 60
- Plant response rating, Soybean ([16]; 31 g ai/ha): 70
- Soybean plant response rating ([16]; 62 g ai/ha): 40
- Soybean plant response rating ([16]; 125 g ai/ha): 70
